Laboratory results: patent publication US20230339890A1, “AMINO ALCOHOL COMPOUNDS AND USES THEREOF” (Kineta, Inc., priority 2020, published 2023)

Each compound was assayed against Recombinant human CYP51A1 (lanosterol-14a-demethylase) (Homo sapiens (Human), UniProt Q16850) (assay: Inhibition of CYP51A1, fluorescent substrate BOMCC). Details: recombinant human CYP51A1 coexpressed with CYP reductase in bacterial membranes, 8-point concentration-response, read-out: CYP51 IC50.
Type: biochemical
Text: Method: Recombinant human CYP51A1 (lanosterol-14a-demethylase) enzyme was coexpressed with CYP reductase in bacterial membranes and the fluorescent substrate BOMCC (a nonnatural substrate that causes increases in fluorescence upon CYP51A1-dependent demethylation) was used to obtain 8-point dose concentration-response curves for each compound.

Recombinant human CYP51A1 (lanosterol-14a-demethylase), sequence (Q16850 whole entry): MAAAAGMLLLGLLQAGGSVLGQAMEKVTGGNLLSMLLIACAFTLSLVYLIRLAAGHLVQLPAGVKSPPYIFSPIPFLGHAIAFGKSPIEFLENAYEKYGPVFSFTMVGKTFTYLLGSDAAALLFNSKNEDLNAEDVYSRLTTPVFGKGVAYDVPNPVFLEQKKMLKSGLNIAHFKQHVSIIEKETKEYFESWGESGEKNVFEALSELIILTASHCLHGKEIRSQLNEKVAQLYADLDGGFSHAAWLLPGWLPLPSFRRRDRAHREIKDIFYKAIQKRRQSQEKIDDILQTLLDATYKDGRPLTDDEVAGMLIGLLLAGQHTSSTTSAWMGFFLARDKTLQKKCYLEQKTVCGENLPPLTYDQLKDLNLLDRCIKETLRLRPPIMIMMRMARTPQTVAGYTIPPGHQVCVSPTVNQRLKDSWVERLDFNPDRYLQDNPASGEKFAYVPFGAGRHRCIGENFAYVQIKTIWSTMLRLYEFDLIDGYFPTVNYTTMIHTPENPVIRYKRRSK

Structure (SMILES) | IC50
NCCCCCN(CC(O)c1cccnc1)C(=O)Cc1ccc(Cl)c(Cl)c1 (stereo not drawn) [compound 33, N-(5-aminopentyl)-2-(3,4-dichlorophenyl)-N-[2-hydroxy-2-(3-pyridyl)ethyl]acet amide] | > 1 µM
CCCN(CC(O)c1cncc(Cl)c1)C(=O)Cc1ccc(Cl)c(Cl)c1 (stereo not drawn) [compound 37, N-[2-(5-chloro-3-pyridyl)-2-hydroxy-ethyl]-2-(3,4-dichlorophenyl)-N-propyl-acetamide] | > 1 µM
CCCN(C[C@@H](O)c1cccnc1)C(=O)Cc1ccc(C#N)nc1 [compound 39, 2-(6-cyano-3-pyridyl)-N-[(2S)-2-hydroxy-2-(3-pyridyl)ethyl]-N-propyl-acetamide] | > 1 µM
CC(C)(O)CN(CC(O)c1cccnc1)C(=O)Cc1ccc(Cl)c(Cl)c1 (stereo not drawn) [compound 43, 2-(3,4-dichlorophenyl)-N-(2-hydroxy-2-methylpropyl)-N-[2-hydroxy-2-(3-pyridyl)ethyl]acetamide] | > 1 µM
CCCN(C[C@@H](O)c1cccnc1)C(=O)Cc1cncc(Cl)c1 [compound 44, 2-(5-chloro-3-pyridyl)-N-[(2S)-2-hydroxy-2-(3-pyridyl)ethyl]-N-propyl-acetamide] | > 1 µM
CCCN(CC(O)c1cncc(Br)c1)C(=O)Cc1ccc(C(F)(F)F)nc1 (stereo not drawn) [compound 46, N-[2-(5-bromo-3-pyridyl)-2-hydroxyethyl]-N-propyl-2-[6-(trifluoromethyl)-3-pyridyl]acetamide] | > 1 µM
CCCN(CC(O)c1cncc(C(C)=O)c1)C(=O)Cc1ccc(C(F)(F)F)nc1 (stereo not drawn) [compound 48, N-[2-(5-acetyl-3-pyridyl)-2-hydroxy-ethyl]-N-propyl-2-[6-(trifluoromethyl)-3-pyridyl]acetamide] | > 1 µM
CCC(=O)N(CCc1ccc(C(F)(F)F)nc1)CC(O)c1cccnn1 (stereo not drawn) [compound 49] | > 1 µM
COC(=O)N(CCc1ccc(C(F)(F)F)nc1)CC(O)c1cccnn1 (stereo not drawn) [compound 51] | > 1 µM
CCCN(CC(O)c1cccnn1)C(=O)Cc1ccc(C#N)c(Cl)c1 (stereo not drawn) [compound 52, 2-(3-chloro-4-cyanophenyl)-N-(2-hydroxy-2-pyridazin-3-yl-ethyl)-N-propyl-acetamide] | 0.1 to 1 µM
CCCN(CC(O)c1cncc(C(C)(C)O)c1)C(=O)Cc1ccc(C(F)(F)F)nc1 (stereo not drawn) [compound 55, N-[2-hydroxy-2-[5-(1-hydroxy-1-methyl-ethyl)-3-pyridyl]ethyl]-N-propyl-2-[6-(trifluoromethyl)-3-pyridyl]acetamide] | > 1 µM
CC(=O)N1CCC(CN(C[C@@H](O)c2cccnc2)C(=O)Cc2ccc(C(F)(F)F)nc2)CC1 [compound 57, N-[(1-acetyl-4-piperidyl)methyl]-N-[(2S)-2-hydroxy-2-(3-pyridyl)ethyl]-2-[6-(trifluoromethyl)-3-pyridyl]acetamide] | > 1 µM
CN1CCC(CN(C[C@@H](O)c2cccnc2)C(=O)Cc2ccc(C(F)(F)F)nc2)CC1 [compound 58, N-[(2S)-2-hydroxy-2-(3-pyridyl)ethyl]-N-[(1-methyl-4-piperidyl)methyl]-2-[6-(trifluoromethyl)-3-pyridyl]acetamide] | > 1 µM
CCCN(C[C@@H](O)c1cccnc1)C(=O)Cc1cncc(C(F)(F)F)c1 [compound 59, N-[(2S)-2-hydroxy-2-(3-pyridyl)ethyl]-N-propyl-2-[5-(trifluoromethyl)-3-pyridyl]acetamide] | > 1 µM
CCCN(CC(O)c1cccnc1)C(=O)Cc1ccc(Cl)c(C)n1 (stereo not drawn) [compound 63, 2-(5-chloro-6-methyl-2-pyridyl)-N-[2-hydroxy-2-(3-pyridyl)ethyl]-N-propyl-acetamide] | > 1 µM
O=C(Cc1ccc(F)c(Cl)c1)N(CC1COC1)C[C@@H](O)c1cccnc1 [compound 65, 2-(3-chloro-4-fluoro-phenyl)-N-[(2S)-2-hydroxy-2-(3-pyridyl)ethyl]-N-(oxetan-3-ylmethyl)acetamide] | > 1 µM
COC(=O)N(CCc1ccc(C(F)(F)F)nc1)C[C@@H](O)c1cccnc1 [compound 75, Methyl N-[(2S)-2-hydroxy-2-(3-pyridyl)ethyl]-N-[2-[6-(trifluoromethyl)-3-pyridyl]ethyl]carba mate] | > 1 µM
O=C(Cc1ccc(C(F)(F)F)nc1)N(C[C@@H](O)c1cccnc1)C1COC1 [compound 78, N-[(2S)-2-hydroxy-2-(3-pyridyl)ethyl]-N-(oxetan-3-yl)-2-[6-(trifluoromethyl)-3-pyridyl]acetamide] | 0.1 to 1 µM
O=C(Cc1ccc(C(F)(F)F)nc1)N(CC1CCOCC1)C[C@@H](O)c1cccnc1 [compound 79, N-[(2S)-2-hydroxy-2-(3-pyridyl)ethyl]-N-(tetrahydropyran-4-ylmethyl)-2-[6-(trifluoromethyl)-3-pyridyl]acetamide] | > 1 µM
N#Cc1ccc(CC(=O)N(CC2COC2)C[C@@H](O)c2cccnc2)cc1Cl [compound 80, 2-(3-chloro-4-cyano-phenyl)-N-[(2S)-2-hydroxy-2-(3-pyridyl)ethyl]-N-(oxetan-3-ylmethyl)acetamide] | 0.1 to 1 µM
O=C(Cc1ccc(C(F)(F)F)nc1)N(CC1CCNCC1)C[C@@H](O)c1cccnc1 [compound 81, N-[(2S)-2-hydroxy-2-(3-pyridyl)ethyl]-N-(4-piperidylmethyl)-2-[6-(trifluoromethyl)-3-pyridyl]acetamide] | > 1 µM
COC(=O)N(CCc1ccc2ccccc2c1)CC(O)c1cccnc1 (stereo not drawn) [compound 82, Methyl N-[2-hydroxy-2-(3-pyridyl)ethyl]-N-[2-(2-naphthyl)ethyl]carba mate] | 0.1 to 1 µM

More lines, now with the values ahead:

IC50 | Structure (SMILES)
0.1 to 1 µM | CCCN(CC(O)c1cccnn1)C(=O)Cc1ccc(C(F)(F)F)nc1 (stereo not drawn) [compound 32, N-(2-hydroxy-2-pyridazin-3-yl-ethyl)-N-propyl-2-[6-(trifluoromethyl)-3-pyridyl]acetamide]
0.1 to 1 µM | CCC(=O)N(CC1Cc2cc(Cl)c(Cl)cc2C1)C[C@@H](O)c1cccnc1 [compound 34, N-[(5,6-dichloroindan-2-yl)methyl]-N-[(2S)-2-hydroxy-2-(3-pyridyl)ethyl]propanamide]
0.1 to 1 µM | CCCN(C[C@@H](O)c1cccnc1)C(=O)Cc1ccc(C(F)(F)F)nn1 [compound 38, N-[(2S)-2-hydroxy-2-(3-pyridyl)ethyl]-N-propyl-2-[6-(trifluoromethyl)pyridazin-3-yl]acetamide]
0.1 to 1 µM | CCCN(C[C@@H](O)c1cccnc1)C(=O)Cc1ccc2ncsc2c1 [compound 40, 2-(1,3-benzothiazol-6-yl)-N-[(2S)-2-hydroxy-2-(3-pyridyl)ethyl]-N-propyl-acetamide]
≤ 0.1 µM | CCCN(C[C@@H](O)c1cccnc1)C(=O)Cc1ccc(OC(F)(F)F)cn1 [compound 45, N-[(2S)-2-hydroxy-2-(3-pyridyl)ethyl]-N-propyl-2-[5-(trifluoromethoxy)-2-pyridyl]acetamide]
0.1 to 1 µM | CCCN(C[C@@H](O)c1cccnc1)C(=O)Cc1ccc2scnc2c1 [compound 47, 2-(1,3-benzothiazol-5-yl)-N-[(2S)-2-hydroxy-2-(3-pyridyl)ethyl]-N-propyl-acetamide]
≤ 0.1 µM | CCCN(C[C@@H](O)c1cccnc1)C(=O)Cc1ccc(C(F)F)c(F)c1 [compound 50, 2-[4-(difluoromethyl)-3-fluoro-phenyl]-N-[(2S)-2-hydroxy-2-(3-pyridyl)ethyl]-N-propyl-acetamide]
0.1 to 1 µM | O=C(Cc1ccc(C(F)(F)F)nc1)N(CC(O)c1cccnn1)C1CCC1 (stereo not drawn) [compound 60, N-cyclobutyl-N-(2-hydroxy-2-pyridazin-3-yl-ethyl)-2-[6-(trifluoromethyl)-3-pyridyl]acetamide]
≤ 0.1 µM | O=C(Cc1ccc(C(F)(F)F)nc1)N(Cc1ccccc1)C[C@@H](O)c1cccnc1 [compound 64, (S)-N-benzyl-N-(2-hydroxy-2-(pyridin-3-yl)ethyl)-2-(6-(trifluoromethyl)pyridin-3-yl)acetamide]
0.1 to 1 µM | O=C(Cc1ccc(OC(F)(F)F)cn1)N(CC1COC1)C[C@@H](O)c1cccnc1 [compound 66, N-[(2S)-2-hydroxy-2-(3-pyridyl)ethyl]-N-(oxetan-3-ylmethyl)-2-[5-(trifluoromethoxy)-2-pyridyl]acetamide]
≤ 0.1 µM | CCCN(C[C@@H](O)c1cccnc1)C(=O)Cc1ccc2cc(Cl)sc2c1 [compound 67, 2-(2-chlorobenzothiophen-6-yl)-N-[(2S)-2-hydroxy-2-(3-pyridyl)ethyl]-N-propyl-acetamide]
≤ 0.1 µM | O=C(Cc1ccc(Cl)c(Cl)c1)N(C[C@@H](O)c1cccnc1)C1CCC1 [compound 71, N-cyclobutyl-2-(3,4-dichlorophenyl)-N-[(2S)-2-hydroxy-2-(3-pyridyl)ethyl]acetamide]
0.1 to 1 µM | CC(C)N(C[C@@H](O)c1cccnc1)C(=O)Cc1ccc(C(F)(F)F)nc1 [compound 72, (S)-N-(2-hydroxy-2-(pyridin-3-yl)ethyl)-N-isopropyl-2-(6-(trifluoromethyl)pyridin-3-yl)acetamide]
0.1 to 1 µM | O=C(Cc1ccc(C(F)(F)F)nc1)N(CC1COC1)C[C@@H](O)c1cccnc1 [compound 73, N-[(2S)-2-hydroxy-2-(3-pyridyl)ethyl]-N-(oxetan-3-ylmethyl)-2-[6-(trifluoromethyl)-3-pyridyl]acetamide]
≤ 0.1 µM | O=C(Cc1ccc(C(F)(F)F)nc1)N(C[C@@H](O)c1cccnc1)C1CCC1 [compound 74, N-cyclobutyl-N-[(2S)-2-hydroxy-2-(3-pyridyl)ethyl]-2-[6-(trifluoromethyl)-3-pyridyl]acetamide]
≤ 0.1 µM | CC1(CN(C[C@@H](O)c2cccnc2)C(=O)Cc2ccc(C(F)(F)F)nc2)CC1 [compound 76, N-[(2S)-2-hydroxy-2-(3-pyridyl)ethyl]-N-[(1-methylcyclopropyl)methyl]-2-[6-(trifluoromethyl)-3-pyridyl]acetamide]
≤ 0.1 µM | N#Cc1ccc(CC(=O)N(C[C@@H](O)c2cccnc2)C2CCC2)cc1Cl [compound 77, 2-(3-chloro-4-cyano-phenyl)-N-cyclobutyl-N-[(2S)-2-hydroxy-2-(3-pyridyl)ethyl]acetamide]
